Legend:
Assay in all cases: Detection of various strains of S. aureus in the presence of substrates
Enterococcus 6 strains = type: cell-based
[1] = system: S. aureus (including MRSA) 10 strains; type: cell-based, Staphylococcus aureus; details: for No. of strains detected, S. aureus (including MRSA): 10 strains
S. epidermidis 2 strains = type: cell-based
Method: A mass of 40 mg of each substrate was dissolved in 4 ml of dimethylformamide (DMF). This solution was entirely taken up in 400 ml of Columbia agar autoclaved beforehand and kept molten at 50° C. The final concentration for each substrate was 100 mg/l.
Each of the media was distributed into Petri dishes 90 mm in diameter, in a proportion of 20 ml per dish.
18 microorganism strains derived from collections and belonging to various species of bacteria and of yeasts were inoculated onto these media by semi-quantitative isolation of 10 μl of a suspension at 0.5 McFarland diluted to 1/20. […]

Staph spp 12 strains = type: cell-based

SMILES	No. of strains detected, Enterococcus (Enterococcus 6 strains; 24 h)	No. of strains detected, Enterococcus (Enterococcus 6 strains; 48 h)	Distinguishing or identifying Staphylococcus aureus strains, in particular MRSA, from most of the other Gram-positive bacterial strains [1]	No. of strains detected, S. aureus (including MRSA) ([1]; 24 h)	No. of strains detected, S. aureus (including MRSA) ([1]; 48 h)	No. of strains detected, S. epidermidis (S. epidermidis 2 strains; 24 h)	No. of strains detected, S. epidermidis (S. epidermidis 2 strains; 48 h)	No. of strains detected, Staph spp (Staph spp 12 strains; 24 h)	No. of strains detected, Staph spp (Staph spp 12 strains; 48 h)
Cc1ccc2oc(-c3ccccc3[N+](=O)[O-])nc2c1 [Substrate 3]	0	1	make it possible to distinguish or identify the Staphylococcus aureus strains	10	10	0	2	12	12
O=[N+]([O-])c1ccc(Cl)cc1-c1nc2ccccc2o1 [Substrate 4]	0	1	make it possible to distinguish or identify the Staphylococcus aureus strains	10	10	0	2	12	12
CN1CCN(c2ccc([N+](=O)[O-])c(-c3nc4ccccc4o3)c2)CC1 [Substrate 8]	0	1	make it possible to distinguish or identify the Staphylococcus aureus strains	10	10	0	2	12	12
O=[N+]([O-])c1ccc(Cl)cc1-c1nc2ccccc2s1 [Substrate 21]	0	1	make it possible to distinguish or identify the Staphylococcus aureus strains	10	10	0	2	12	12
